Reference: patent US20120022026A1, “METHOD OF TREATING CANCER” (ERASMUS UNIVERSITY MEDICAL CENTER ROTTERDAM, priority 2009, published 2012)
Like-named read-outs stand apart in the source and are kept apart here. Residues, ends and D or L forms follow the SMILES beside them. *: point of attachment. Cbz = O=C(OCc1ccccc1)*

What was measured:
PARP-2 = PARP-2 (Homo sapiens, UniProt Q9UGN5); conditions: cited from earlier work
PARP = conditions: cited from earlier work
BRCA2 [1] = experiment: Immunoblotting of BRCA2 in BLM cells under mild hyperthermia; type: cell-based, human; conditions: hyperthermia plus 100 nM 17-DMAG vs heat without 17-DMAG or 17-DMAG at 37° C. (FIG. 4A)
Experimental: (§1) Embryonic stem (ES) cells were cultured on gelatin-coated dishes in a 1:1 mixture of Dulbecco's modified Eagle's medium (DMEM) and buffalo rat liver conditioned medium, supplemented with 10% FBS (Hyclone), 0.1 mM nonessential amino acids (Biowhittaker), […] β-mercaptoethanol (Sigma) and 500 U ml-1 leukemia inhibitory factor. Other cells were cultured in following media, supplemented with 10% (v/v) FCS and streptomycin/penicillin: 1:1 mixture of DMEM and Ham's F10 (HeLa), DMEM (human melanoma [BLM], osteosarcoma [U2OS], cervix carcinoma cells), L-15 (human squamous lung carcinoma [SW-1573]), Eagle's MEM (mouse osteosarcoma [MOS], rat rhabdomyosarcoma [R1]). Cells were maintained at 37° C. in an atmosphere containing 5% (HeLa, BLM), 10% (U2OS, cervix carcinoma cells), 2% (R1) or 0% (SW-1573) CO2. Patients with cervical cancer expressed written informed consent to provide fresh biopsies during an investigation under general anesthesia, and use the tumor specimens for this study. This study was approved by the medical ethical committee of the AMC (MEC #03/137). […]
(§2) Cells were lysed in SDS sample buffer (2% SDS, 10% glycerol, 60 mM Tris-HCl pH 6.8). […] Protein concentration was determined by the Lowry protein assay, extracts were supplemented with 0.5% […] and 0.02% bromophenol blue. […]

[2] = test system: HR-mediated gene targeting; experiment: Gene targeting efficiency assay in ES cells; type: cell-based; conditions: mouse ES cells, 41° C. plus 100 nM 17-DMAG vs heat without 17-DMAG or 17-DMAG at 37° C. (FIG. 1C)
Experimental: as §1, with “#03/137). The biopsies were minced using scalpel, then incubated in Liberase Blendzyme enzyme cocktail (Roche) in DMEM for 60 min at 37° C. and plated on glass coverslips in fresh culture medium.” for “#03/137).”

R1 cells = experiment: Clonogenic assay, R1 cells with mild hyperthermia; type: cell-based, rat; conditions: R1, 41° C.; for clonogenic survival: combination of 100 μM NU1025 and 100 nM 17-DMAG (FIG. 4B)
Experimental: Embryonic stem (ES) cells were cultured on gelatin-coated dishes in a 1:1 mixture of Dulbecco's modified Eagle's medium (DMEM) and buffalo rat liver conditioned medium, supplemented with 10% FBS (Hyclone), 0.1 mM nonessential amino acids (Biowhittaker), […] β-mercaptoethanol (Sigma) and 500 U ml-1 leukemia inhibitory factor. Other cells were cultured in following media, supplemented with 10% (v/v) FCS and streptomycin/penicillin: 1:1 mixture of DMEM and Ham's F10 (HeLa), DMEM (human melanoma [BLM], osteosarcoma [U2OS], cervix carcinoma cells), L-15 (human squamous lung carcinoma [SW-1573]), Eagle's MEM (mouse osteosarcoma [MOS], rat rhabdomyosarcoma [R1]). Cells were maintained at 37° C. in an atmosphere containing 5% (HeLa, BLM), 10% (U2OS, cervix carcinoma cells), 2% (R1) or 0% (SW-1573) CO2. Patients with cervical cancer expressed written informed consent to provide fresh biopsies during an investigation under general anesthesia, and use the tumor specimens for this study. This study was approved by the medical ethical committee of the AMC (MEC #03/137). The biopsies were minced using scalpel, then incubated in Liberase Blendzyme enzyme cocktail (Roche) in DMEM for 60 min at 37° C. and plated on glass coverslips in fresh culture medium. All incubations at elevated temperature were performed in a heated waterbath or in a water-filled cuvette placed in an incubator set to required temperature, in an atmosphere containing appropriate CO2 concentration.
The following inhibitors were used at the indicated final concentrations: 17-DMAG, 100 nM (Sigma-Aldrich), NU1025, 100 μM (Sigma-Aldrich), MG-132, 10 μM (Calbiochem).
(§3) In experiments involving NU1025 or irradiation, cells were trypsinized, counted and plated at appropriate concentrations into 60- or 35 mm dishes. […] Cells were then incubated for 7-14 days, fixed, stained and colonies exceeding 50 cells were counted. […] In experiments involving a combination of NU1025 and 17-DMAG, cells were first treated as indicated and subsequently trypsinized, counted and plated at various concentrations. […]

BRCA2 [3] = experiment: Immunoblotting of BRCA2 in HeLa cells under mild hyperthermia; type: cell-based; conditions: exposed to 41° C. in presence of 10 μM MG132 (FIG. 2C)
Experimental: as §1, §2

SW-1573 cells = experiment: Clonogenic assay, SW-1573 cells; type: cell-based, human
Experimental: as §1, with “CO2.” for “CO2. Patients with cervical cancer expressed written informed consent to provide fresh biopsies during an investigation under general anesthesia, and use the tumor specimens for this study. This study was approved by the medical ethical committee of the AMC (MEC #03/137).”
as §3

MOS cells = experiment: Clonogenic assay, MOS cells; type: cell-based, mouse
Experimental: as §1, with “CO2.” for “CO2. Patients with cervical cancer expressed written informed consent to provide fresh biopsies during an investigation under general anesthesia, and use the tumor specimens for this study. This study was approved by the medical ethical committee of the AMC (MEC #03/137).”
as §3

U2OS cells = experiment: Clonogenic assay, U2OS cells with mild hyperthermia; type: cell-based, human; conditions: 41° C., 100 μM NU1025 (FIG. 3A)
Experimental: as §1, with “CO2.” for “CO2. Patients with cervical cancer expressed written informed consent to provide fresh biopsies during an investigation under general anesthesia, and use the tumor specimens for this study. This study was approved by the medical ethical committee of the AMC (MEC #03/137).”
as §3

recombinant PARP-1 = recombinant PARP-1 (Homo sapiens, UniProt P09874); conditions: recombinant PARP-1, cell-free assay; read-out: competitive inhibition Ki; cited from earlier work
recombinant PARP-1, sequence (P09874 whole entry, species assumed, canonical isoform): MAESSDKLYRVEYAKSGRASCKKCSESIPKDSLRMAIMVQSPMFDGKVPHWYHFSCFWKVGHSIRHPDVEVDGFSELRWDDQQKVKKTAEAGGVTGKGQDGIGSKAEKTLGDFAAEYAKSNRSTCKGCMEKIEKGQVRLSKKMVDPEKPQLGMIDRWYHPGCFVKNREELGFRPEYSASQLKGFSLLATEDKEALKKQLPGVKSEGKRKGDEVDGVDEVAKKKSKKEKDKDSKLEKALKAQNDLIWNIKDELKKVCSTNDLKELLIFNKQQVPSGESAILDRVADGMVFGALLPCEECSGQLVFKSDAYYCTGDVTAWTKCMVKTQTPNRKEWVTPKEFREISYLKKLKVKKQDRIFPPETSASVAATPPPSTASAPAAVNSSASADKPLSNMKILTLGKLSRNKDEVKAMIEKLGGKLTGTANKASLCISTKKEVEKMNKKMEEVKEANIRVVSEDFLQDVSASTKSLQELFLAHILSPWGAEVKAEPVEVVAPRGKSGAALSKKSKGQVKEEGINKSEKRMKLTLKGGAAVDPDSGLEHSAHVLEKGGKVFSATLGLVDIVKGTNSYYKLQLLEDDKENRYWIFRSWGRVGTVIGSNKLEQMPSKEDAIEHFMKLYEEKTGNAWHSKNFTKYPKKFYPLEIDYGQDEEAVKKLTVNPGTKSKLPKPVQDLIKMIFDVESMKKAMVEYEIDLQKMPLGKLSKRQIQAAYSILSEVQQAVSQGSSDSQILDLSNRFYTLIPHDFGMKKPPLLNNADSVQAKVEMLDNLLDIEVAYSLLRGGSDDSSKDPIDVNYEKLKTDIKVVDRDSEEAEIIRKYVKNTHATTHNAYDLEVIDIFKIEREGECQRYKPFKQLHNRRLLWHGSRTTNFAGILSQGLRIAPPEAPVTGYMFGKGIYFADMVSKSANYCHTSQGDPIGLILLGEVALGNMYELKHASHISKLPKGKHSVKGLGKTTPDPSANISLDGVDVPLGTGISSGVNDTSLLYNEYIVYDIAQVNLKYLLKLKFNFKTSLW

[4] = PARP inhibitor potency as listed, isoform not stated

PARP-2, sequence (Q9UGN5 whole entry, species assumed): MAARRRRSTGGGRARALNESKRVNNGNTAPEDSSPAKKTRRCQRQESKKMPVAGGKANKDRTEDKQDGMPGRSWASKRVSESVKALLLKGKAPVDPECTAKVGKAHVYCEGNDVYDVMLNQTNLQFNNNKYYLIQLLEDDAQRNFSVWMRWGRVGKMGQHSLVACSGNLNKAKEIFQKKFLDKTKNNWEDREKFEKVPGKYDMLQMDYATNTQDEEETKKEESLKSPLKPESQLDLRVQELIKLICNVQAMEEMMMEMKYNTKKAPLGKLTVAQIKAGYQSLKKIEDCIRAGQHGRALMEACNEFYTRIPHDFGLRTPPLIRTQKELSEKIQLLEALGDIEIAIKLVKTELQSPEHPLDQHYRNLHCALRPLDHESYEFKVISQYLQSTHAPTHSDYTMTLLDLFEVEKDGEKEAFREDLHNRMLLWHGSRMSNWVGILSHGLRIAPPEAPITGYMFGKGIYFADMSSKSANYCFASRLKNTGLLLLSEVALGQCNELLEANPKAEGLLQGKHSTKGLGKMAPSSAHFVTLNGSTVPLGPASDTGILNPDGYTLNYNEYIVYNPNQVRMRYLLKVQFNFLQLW

NC(=O)c1cccc2ncc(-c3ccc(Cl)cc3)nc12 [3-(4-chlorophenyl)quinoxaline-5-carboxamide]
IC50 (PARP-2): 7 nM

Nc1ccc2c3c(cccc13)C(=O)NC2=O [4-ANI, 4-amino-1,8-naphthalimide]
IC50 (PARP): 180 nM

CO[C@H]1/C=C\C=C(/C)C(=O)NC2=CC(=O)C(NCCN(C)C)=C(C[C@@H](C)C[C@H](OC)[C@H](O)[C@@H](C)/C=C(\C)[C@@H]1OC(N)=O)C2=O [17-DMAG, 17-dimethylaminoethylamino-17-demethoxy-geldanamycin]
levels of BRCA2 protein (BRCA2 [1]): further reduced | efficiency of HR-mediated gene targeting [2]: further reduced | clonogenic survival (R1 cells): dramatically reduced

O=C1NCCc2c(OCCCCN3CCCCC3)cccc21 [DPQ, 3,4-dihydro-5[4-(1-piperindinyl)butoxy]-1(2H)-isoquinoline]
IC50 (PARP; [4]): 40 nM

Cc1nc2c(c(=O)[nH]1)CSCC2 [DR2313, 2-methyl-3,5,7,8-tetrahydrothiopyrano[4,3-d]pyrimidine-4-one]
IC50 (PARP-2): 240 nM

Nc1ncnc2c1ncn2C1OC(C(=O)N2CCN(CC(=O)Nc3cccc4c3CNC4=O)CC2)C(O)C1O [EB-47, 1-piperazineacetamide,4-[1-(6-amino-9H-purin-9-yl)-1-deoxy-6-D-ribofuranuron]-N-(2,3-dihydro-1H-isoindol-4-yl)-1-one]
IC50 (PARP; [4]): 45 nM

Oc1cccc2c(O)nccc12 [IQD, 1,5-dihydroxyisoquinoline]
IC50 (PARP; [4]): 390 nM

CC(C)C[C@@H](C=O)NC(=O)[C@H](CC(C)C)NC(=O)[C@H](CC(C)C)NC(=O)OCc1ccccc1 [MG132] (Cbz-Leu-Leu-Leu-aldehyde)
BRCA2 levels on hyperthermia (BRCA2 [3]): no decrease of BRCA2 levels

Cc1nc2c(O)cccc2c(=O)[nH]1 [NU1025, 8-hydroxy-2-methylquinazoline-4-one]
sensitivity to inhibitor alone (SW-1573 cells; SW-1573, NU1025 alone, data not shown): insensitive | survival of hyperthermia-treated cells (SW-1573 cells; SW-1573, hyperthermia plus NU1025, data not shown): did not reduce survival | clonogenic survival compared to hyperthermia alone (R1 cells; 100 μM NU1025 (FIG. 3B)): decrease in clonogenic survival | clonogenic survival (R1 cells): dramatically reduced | IC50 (PARP): 400 nM | sensitivity to inhibitor alone (MOS cells; NU1025 alone, data not shown): insensitive | survival of hyperthermia-treated cells (MOS cells; hyperthermia plus NU1025, data not shown): did not reduce survival | clonogenic survival compared to hyperthermia alone (U2OS cells): decrease in clonogenic survival

O=C1N=C2SCC=C2c2ccccc21 [TIQ-A, thieno[2,3-c]isoquinolin-5-one]
IC50 (PARP; [4]): 450 nM

CN(C)c1ccc(O)c2c1C[C@H]1C[C@H]3[C@H](N(C)C)C(O)=C(C(N)=O)C(=O)[C@@]3(O)C(O)=C1C2=O [minocycline]
Ki (recombinant PARP-1): 13.8 nM
